Molecules are shown by their SMILES.

Our source for the EC50 values is patent publication US9988361B2, “Anti-enterovirus 71 thiadiazolidine derivative” (JIANGSU KANION PHARMACEUTICAL CO. LTD, priority 2014, dated 2018).

This test deals with EV71 virus strain Shenzhen/120F1/09. The test is described as follows: EV71 in-vitro cytopathic effect (CPE) test. The class given is cell-based, RD cells of human rhabdomyoma. To be noted: Enterovirus A, 72 h; RD cells, EV71 100 TCID50, 3 days, CCK8 readout; read-out: EC50 by EC71 CPE test, EV71. On the procedure: Test of EV71 In-Vitro Cytopathic Effect (CPE) To test the in-vitro antiviral activity and cytotoxicity of a compound to HFMD virus EV71 by means of cytopathic effect (CPE) test. […] Cell line: RD cells of human rhabdomyoma • 3. Cell culture media: DMEM medium added with 10% serum, Penicillin/Streptomycin and L-[…]×) • 4. […] Cell inoculation: digest off the RD cells from the attached state, then dilute them with culture medium to a density of 80000/ml and inoculate 100 μl into the micro wells the 96-well plate. • 2. Dilution of compound: • Step 1: prepare the dry powder of a compound to test into a 10 mM solution in DMSO. Then dilute the compound by three times to eight concentration points. Dilute the reference compounds with the same method. • Step 2: further dilute the diluted solution of the compound in DMSO with cell culture medium. Add 10 μl DMSO solution for each well into 240 μl culture medium. • 3. Add the diluted compound solution by 50 μl each well into the 96-well plate inoculated with cells (double holes, final concentration of DMSO is 1%). • 4. Dilution of virus: dilute EV71 virus solution by 10000 times to a concentration of 100 TCID50/50 μl/. Add the diluted virus solution by 50 μl each well into the 96-well plate. Prepare another 96-well plate to replace the virus with culture medium and similarly inoculate the cells. Add the compound to test the toxicity of compound on cells. • 5. Cultivate the 96-well plate 3 days at the conditions of 37° C. and 5% CO2. • 6. EC50 and CC50 tests: add the cellular activity test reagent CCK8 into the micro-wells by 20 μl/well. Use ELIASA to read the absorbancy at the wavelength of 450 nm and 630 nm. • 7.
For `CCO/N=C/c1ccc(OCCCCCN2CCN(c3ccnc(N4CCC4)c3)S2(=O)=O)cc1` [Embodiment 42, (E)-4-((5-(5-(2-(azetidin-1-yl)-pyridin-4-yl)-1,1-dioxide-1,2,5-thiadiazolidine-2-yl)-pentyl)-oxy)-benzaldehyde-O-ethyl ketoxime], the EC50 lay in the range of 100 to 500 nM.

Regarding `CCO/N=C/c1ccc(OCCCCCN2CCN(c3ccnc(N(C)C)c3)S2(=O)=O)cc1` [Embodiment 43, (E)-4-((5-(5-(2-(dimethylamino)-pyridin-4-yl)-1,1-dioxide-1,2,5-thiadiazolidine-2-yl)-pentyl)-oxy)-benzaldehyde-O-ethyl ketoxime], the EC50 fell in the range of 100 to 500 nM.

`CCO/N=C/c1ccc(OCCCCCN2CCN(c3ccc(C#N)cc3)S2(=O)=O)cc1` [Embodiment 44]: the EC50 was in the range of 50 to 100 nM.

With `CCO/N=C1\CCc2cc(OCCCCCN3CCN(c4ccsc4)S3(=O)=O)ccc21` [Embodiment 46, (E)-2-(5-((1-(ethoxy-imino)-2,3-dihydro-1H-inden-5-yl)-oxy)-pentyl)-5-(thiophen-3-yl)-1,2,5-thiadiazolidine-1,1-dioxide], the EC50 lay in the range of 100 to 500 nM.

Take `CCO/N=C1\CCc2cc(OCCCCCN3CCN(c4ccc(N)nc4)S3(=O)=O)ccc21` [Embodiment 47]: the EC50 was in the range of 500 to 1000 nM.

With `CCO/N=C1\CCc2cc(OCCCCCN3CCN(c4ccnc(N)c4F)S3(=O)=O)ccc21` [Embodiment 48, (E)-2-(2-amino-3-fluoropyridin-4-yl)-5-(5-((1-(ethoxy-imino)-2,3-dihydro-1H-indene-5-yl)-oxy)-pentyl)-1,2,5-thiadiazolidine-1,1-dioxide], the EC50 lay in the range of 100 to 500 nM.

For `CCO/N=C1\CCc2cc(OCCCCCN3CCN(c4cc(N)ncc4F)S3(=O)=O)ccc21` [Embodiment 49, (E)-2-(2-amino-5-fluoro-pyridin-4-yl)-5-(5-((1-(ethoxy-imino)-2,3-dihydro-1H-indene-5-yl)-oxy)-pentyl)-1,2,5-thiadiazolidine-1,1-dioxide], the EC50 is 100 to 500 nM.

Consider `CCO/N=C1\CCc2cc(OCCCCCN3CCN(c4ccnc(NC)c4)S3(=O)=O)ccc21` [Embodiment 50, (E)-2-(5-((1-(ethoxy-imino)-2,3-dihydro-1H-inden-5-yl)-oxy)-pentyl)-5-(2-(methylamino)-pyridin-4-yl)-1,2-thiadiazolidine-1,1-dioxide], for which the EC50 was < 50 nM.

As for `CCO/N=C1\CCc2cc(OCCCCCN3CCN(c4ccnc(NCCO)c4)S3(=O)=O)ccc21` [Embodiment 51, (E)-2-(5-((1-(ethoxy-imino)-2,3-dihydro-1H-inden-5-yl)-oxy)-pentyl)-5-(2-((2-hydroxyethyl)-amino)-pyridin-4-yl)-1,2,5-thiadiazolidine-1,1-dioxide], the EC50 was < 50 nM.

In the case of `Nc1cc(N2CCN(CCCCCOc3ccc(/C=N/OCC4CC4)cc3)S2(=O)=O)ccn1` [Embodiment 52], the EC50 is < 50 nM.

Turning to `CC(C)O/N=C/c1ccc(OCCCCCN2CCN(c3ccnc(N)c3)S2(=O)=O)cc1` [Embodiment 53, (E)-4-((5-(5-(2-amino-pyridin-4-yl)-1,1-dioxide-1,2,5-thiadiazolidine-2-yl)-pentyl)-oxy)-benzaldehyde-O-isopropyl oxime], the EC50 was < 50 nM.

With `CCO/N=C(\CC)c1ccc(OCCCCCN2CCN(c3ccnc(N)c3)S2(=O)=O)cc1` [Embodiment 54, (E)-2-(2-amino-pyridin-4-yl)-5-(5-(4-(1-(ethoxyimino)-propyl)-phenoxy)-pentyl)-1,2,5-thiadiazolidine-1,1-dioxide], the EC50 was in the range of 500 to 1000 nM.

Consider `CCO/N=C/c1ccc(OCCOCCN2CCN(c3ccnc(N)c3)S2(=O)=O)cc1` [Embodiment 55], for which the EC50 lay within 100 to 500 nM.

As for `CCO/N=C/c1ccc(OCCCCCN2CCN(c3ccnc(N)c3)S2(=O)=O)cn1` [Embodiment 56, (E)-5-((5-(5-(2-amino-pyridin-4-yl)-1,1-dioxide-1,2,5-thiadiazolidine-2-yl)-pentyl)-oxy)-picolinaldehyde-O-ethyl ketoxime], the EC50 was in the range of 50 to 100 nM.

For the compound `CC(C)O/N=C1\CCc2cc(OCCCCCN3CCN(c4ccnc(N)c4)S3(=O)=O)ccc21` [Embodiment 58], the EC50 was < 50 nM.

As to `CCO/N=C1\CCc2cc(OCCCCCN3CCN(c4ccnc(N)c4)S3(=O)=O)cc(F)c21` [Embodiment 59], the EC50 was < 50 nM.

For the compound `CC(C)n1nnc(-c2ccc(OCCCCCN3CCN(c4ccnc(N)c4)S3(=O)=O)cc2)n1` [Embodiment 60], the 50% effective concentration (EC50) is < 50 nM.

Take `Cn1nnc(-c2ccc(OCCCCCN3CCN(c4ccnc(N)c4)S3(=O)=O)cc2)n1` [Embodiment 61, 2-(2-amino-pyridin-4-yl)-5-(5-(4-(2-methyl-2H-tetrazol-5-yl)-phenoxy)-pentyl)-1,2,5-thiadiazolidine-1,1-dioxide]: the half-maximal effective concentration (EC50) was < 50 nM.

For `CCc1noc2cc(OCCCCCN3CCN(c4ccnc(N)c4)S3(=O)=O)ccc12` [Embodiment 62, 2-(2-amino-pyridin-4-yl)-5-(5-((3-ethyl-benzo[d]isoxazol-6-yl)-oxy)-pentyl)-1,2,5-thiadiazolidine-1,1-dioxide], the EC50 is 100 to 500 nM.

For the compound `CCc1nnc(-c2ccc(OCCCCCN3CCN(c4ccnc(N)c4)S3(=O)=O)cc2)o1` [Embodiment 63, 4-(5-(5-(4-(5-ethyl-1,3,4-oxadiazol-2-yl)-phenoxy)-pentyl)-1,1-dioxo-1,2,5-thiadiazolidine-2-yl)-pyridin-2-amine], the EC50 fell in the range of 100 to 500 nM.

In the case of `CCn1ncc(-c2ccc(OCCCCCN3CCN(c4ccnc(N)c4)S3(=O)=O)cc2)n1` [Embodiment 64, 2-(2-amino-pyridin-4-yl)-5-(5-(4-(2-ethyl-2H-1,2,3-triazol-4-yl)-phenoxy)-pentyl)-1,2,5-thiadiazolidine-1,1-dioxide], the EC50 is < 50 nM.

For `CCO/N=C1\CCCc2cc(OCCCCCN3CCN(c4ccnc(N)c4)S3(=O)=O)ccc21` [Embodiment 65], the EC50 fell in the range of 100 to 500 nM.

`CCCc1nc2ccc(OCCCCCN3CCN(c4ccnc(N)c4)S3(=O)=O)cc2o1` [Embodiment 66, 2-(2-amino-pyridin-4-yl)-5-(5-((2-propyl-benzo[d]oxazole-6-yl)-oxy)-pentyl)-1,2,5-thiadiazolidine-1,1-dioxide]: the EC50 is 50 to 100 nM.

On to `CCc1cc(-c2ccc(OCCCCCN3CCN(c4ccnc(N)c4)S3(=O)=O)cc2)no1` [Embodiment 67, 2-(2-amino-pyridin-4-yl)-5-(5-(4-(5-ethylisoxazole-3-yl)-phenoxy)-pentyl)-1,2,5-thiadiazolidine-1,1-dioxide], for which the EC50 is < 50 nM.

In the case of `Nc1cc(N2CCN(CCCCCOc3ccc(-c4noc(C(F)(F)F)n4)cc3)S2(=O)=O)ccn1` [Embodiment 68, 2-(2-amino-pyridin-4-yl)-5-(5-(4-(5 (trifluoromethyl)-1,2,4-oxadiazol-3-yl)-phenoxy)-pentyl)-1,2,5-thiadiazolidine-1,1-dioxide], the EC50 lay within 500 to 1000 nM.

Turning to `Cc1nc(-c2ccc(OCCCCCN3CCN(c4ccnc(N)c4)S3(=O)=O)cc2)no1` [Embodiment 69], the EC50 was < 50 nM.

For `CCO/N=C1\CCc2cc(OCCCCCN3CCN(c4ccnnc4)S3(=O)=O)ccc21` [Embodiment 70], the EC50 was in the range of 100 to 500 nM.

Turning to `CCOc1noc2cc(OCCC(O)CCN3CCN(c4ccncc4)S3(=O)=O)ccc12` (centres unmarked) [Embodiment 71, 2-(5-((3-ethoxy-benzo[d]isoxazole-6-yl)-oxy)-3-hydroxy-pentyl)-5-(pyridin-4-yl)-1,2,5-thiadiazolidine-1,1-dioxide], the EC50 lay within 100 to 500 nM.

With `CCOc1noc2cc(OCCC(F)CCN3CCN(c4ccncc4)S3(=O)=O)ccc12` (centres unmarked) [Embodiment 72, 2-(5-((3-ethoxy-benzo[d]isoxazole-6-yl)-oxy)-3-fluoro-pentyl)-5-(pyridin-4-yl)-1,2,5-thiadiazolidine-1,1-dioxide], the concentration for a half-maximal effect (EC50) was in the range of 50 to 100 nM.

Regarding `CCn1nnc(-c2ccc(OCCC3(CCN4CCN(c5ccnc(N)c5)S4(=O)=O)CC3)cc2)n1` [Embodiment 73, 2-(2-amino-pyridin-4-yl)-5-(2-(1-(2-(4-(2-ethyl-2H-tetrazol-5-yl)-phenoxy)-ethyl)-cyclic propyl)-ethyl)-1,2,5-thiadiazolidine-1,1-dioxide], the EC50 was < 50 nM.

Turning to `CCn1nnc(-c2ccc(OCCCCCN3CCN(c4ccnc(N)c4)S3(=O)=O)nc2)n1` [Embodiment 74, 4-(5-(5-((5-(2-ethyl-tetrazol-5-yl)-2-pyridinyl)-oxy)-pentyl)-1,1-dioxo-1,2,5-thiadiazolidine-2-yl)-pyridin-2-amine], the EC50 was < 50 nM.

Regarding `CCn1nnc(-c2ccc(OCCC(C)(C)CCN3CCN(c4ccnc(N)c4)S3(=O)=O)cc2)n1` [Embodiment 76, 4-(5-(5-(4-(2-ethyl-tetrazol-5-yl)-phenoxy)-3,3-dimethyl-pentyl)-1,1-dioxo-1,2,5-thiadiazolidine-2-yl)-pyridin-2-amine], the EC50 was < 50 nM.
